Reference: patent US20230374034A1, “NOVEL BICYCLIC COMPOUNDS” (PRISM BIOLAB CO., LTD., priority 2020, published 2023)
Like-named read-outs stand apart in the source and are kept apart here.

System: NICD (Notch intracellular domain) CSL-bla reporter in HeLa cells
Assay: Notch assay (CellSensor T-REx NICD CSL-bla HeLa beta-lactamase reporter; Method 1 / Method 2)
Type: cell-based
Conditions: Homo sapiens, 10 μM compound, read-out: inhibiton (%) at 10 μM
Text: We used the CellSensor T-REx™ NICD CSL-bla HeLa cell line, which was engineered by lentiviral transduction of HeLa cells with a Notch response element driving beta-lactamase reporter gene expression (CSL-bla) along with DOX (doxycycline)-inducible NICD (Notch intracellular domain) constructs. Addition of DOX to these cells allows for regulated NICD transcription factor expression and subsequent beta-lactamase expression.
Specifically, the following protocol was used.
NOTCH ASSAY PROTOCOL (Method 2)
• 1. Add 40 nL/well of working concentration of 1000× compound to 384-well assay plate with Echo. • 2. Plate Cells: 35 μl/well of HeLa/T-REx™ NICD CSL-bla cells at 10^3 cells/well complete medium into 384-well plate. • 3. Add 5 μl 8× Doxycycline in Assay Medium to the treated wells, and 5 μl Assay Medium to the Untreated and cell free control wells. • 4. Incubate the assay plate in a humidified 37° C./5% CO2 incubator for 16-20 hours. • 5. Preparation of 6× LiveBLAzer™-FRET B/G Substrate (CCF4-AM) Mixture according to the manual and cell loading should be done in the absence of direct strong lighting. • 6. Remove assay plate from the humidified 37° C./5% CO2 incubator. Add 8 μl of 6× Substrate Mixture from Step 5 to each well. Cover the plate to protect it from light and evaporation. Incubate at room temperature for 4 hours. • 7. Reading an Assay Plate using the following filter selections:
• 8. Data analysis: Use the assay plate layout to identify the location of the Cell-free wells. These control wells are used for background subtraction. Determine the average emission from the Cell-free wells at both 460 nm (Average Blue Background) and 530 nm(Average Green Background). Subtract the Average Blue Background (data collected at 460 nm) from all of the blue emission data. Subtract the Average Green background (data collected at 530 nm) from all of the green emission data. Calculate the Blue/Green Emission Ratio for each well, by dividing the background-subtracted blue emission values by the background-subtracted green emission values.
Instead of Step 1 to Step 3, the following Step a to Step d can also be performed. The subsequent steps are the same as Method 2, after Step 4 (Method 1). • a. Plate Cells: 32 μL/well of HeLa/T-REx™ NICD CSL-bla cells at 10^3 cells/well complete medium into 384-well plate. • b. Prepare 10× compounds in assay medium. • c. Add 4 μL compounds or 1% DMSO in assay medium to the cells. • d. Add 4 μL 10×Doxycycline in Assay Medium to the treated wells, and 4 μL Assay Medium to the Untreated and cell free control wells.
The results are shown in Table 13 (Table 13-1 to Table 13-2).

[1] = Method 2 (40 nL of 1000× compound added to plate with Echo)
[2] = Method 1 (10× compound prepared in assay medium, added to plated cells)

Structure (SMILES) | inhibition at 10 µM [1] [%] | inhibition at 10 µM [2] [%]
CC(C)C[C@H]1ON(C(=O)OCC2CCCCC2)C2CN(C3CCNCC3)C(=O)[C@H](CC(C)C)N2C1=O (stereo partly drawn) [Compound I-135, cyclohexylmethyl (3R,6S)-3,6-diisobutyl-4,7-dioxo-8-(piperidin-4-yl)hexahydropyrazino[2,1-c][1,2,4]oxadiazine-1(6H)-carboxylate] | 110 | 
CCCCCCOC(=O)N1O[C@@H](C(C)C)C(=O)N2C1CN(Cc1ccccc1)C(=O)[C@@H]2Cc1ccc(O)cc1 (stereo partly drawn) [Compound I-3, (3S,6S)-hexyl 8-benzyl-6-(4-hydroxybenzyl)-3-isopropyl-4,7-dioxohexahydropyrazino[2,1-c][1,2,4]oxadiazine-1(6H)-carboxylate] |  | 53.6
CC(C)CCOC(=O)N1O[C@H](C)C(=O)N2C1CN([C@@H](Cc1ccccc1)C(=O)NCCO)C(=O)[C@@H]2Cc1ccccc1 (stereo partly drawn) [Compound I-88, isopentyl (3R,6S)-6-benzyl-8-((S)-1-((2-hydroxyethyl)amino)-1-oxo-3-phenylpropan-2-yl)-3-methyl-4,7-dioxohexahydropyrazino[2,1-c][1,2,4]oxadiazine-1(6H)-carboxylate] | 63.9 | 
NC(=O)CC[C@H]1ON(C(=O)NCCC(c2ccccc2)c2ccccc2)C2CN(Cc3cccc4ccccc34)C(=O)[C@H](Cc3ccccc3)N2C1=O (stereo partly drawn) [Compound I-54, (3R,6S)-3-(3-amino-3-oxopropyl)-6-benzyl-N-(3,3-diphenylpropyl)-8-(naphthalen-1-ylmethyl)-4,7-dioxohexahydropyrazino[2,1-c][1,2,4]oxadiazine-1(6H)-carboxamide] | 60.4 | 
CC(C)C[C@H]1ON(CCCC2CCN(S(=O)(=O)c3cccnc3)CC2)C2CN(C3CCN(C)CC3)C(=O)[C@H](CC(C)C)N2C1=O (stereo partly drawn) [Compound I-150, (3R,6S)-3,6-diisobutyl-8-(1-methylpiperidin-4-yl)-1-(3-(1-(pyridin-3-ylsulfonyl)piperidin-4-yl)propyl)tetrahydropyrazino [2,1-c][1,2,4]oxadiazine-4,7(3H,6H)-dione] | 69.1 | 
CC(C)C[C@H]1ON(C(=O)NCCC(c2ccccc2)c2ccccc2)C2CN(CCC(c3ccccc3)c3ccccc3)C(=O)[C@H](CCC(N)=O)N2C1=O (stereo partly drawn) [Compound I-56, (3R,6S)-6-(3-amino-3-oxopropyl)-N,8-bis(3,3-diphenylpropyl)-3-isobutyl-4,7-dioxohexahydropyrazino[2,1-c][1,2,4]oxadiazine-1(6H)-carboxamide] | 53 | 
CC(C)C[C@H]1ON(C(=O)OCc2cccc3ccccc23)C2CN(C3CCNCC3)C(=O)[C@H](CC(C)C)N2C1=O (stereo partly drawn) [Compound I-136, naphthalen-1-ylmethyl (3R,6S)-3,6-diisobutyl-4,7-dioxo-8-(piperidin-4-yl)hexahydropyrazino[2,1-c][1,2,4]oxadiazine-1(6H)-carboxylate] | 79.7 | 
CC(C)CCNC(=O)[C@H](Cc1ccccc1)N1CC2N(C(=O)OCCc3ccccc3)O[C@H](CCC(N)=O)C(=O)N2[C@@H](Cc2ccccc2)C1=O (stereo partly drawn) [Compound I-90, phenethyl (3R,6S)-3-(3-amino-3-oxopropyl)-6-benzyl-8-((S)-1-(isopentylamino)-1-oxo-3-phenylpropan-2-yl)-4,7-dioxohexahydropyrazino[2,1-c][1,2,4]oxadiazine-1(6H)-carboxylate] | 62.4 | 
CCCC[C@@H](C(=O)NCCCC(C)C)N1CC2N(C(=O)OCCc3ccc(O)cc3)O[C@H](CC(C)C)C(=O)N2[C@@H](Cc2ccc(O)cc2)C1=O (stereo partly drawn) [Compound I-101, 4-hydroxyphenethyl (3R,6S)-6-(4-hydroxybenzyl)-3-isobutyl-8-((S)-1-((4-methylpentyl)amino)-1-oxohexan-2-yl)-4,7-dioxohexahydropyrazino[2,1-c][1,2,4]oxadiazine-1(6H)-carboxylate] | 54.4 | 
CCCC[C@H]1ON(C(=O)OCc2cccc3ccccc23)C2CN(Cc3ccccc3)C(=O)[C@H](Cc3ccc(O)cc3)N2C1=O (stereo partly drawn) [Compound I-11, (3R,6S)-naphthalen-1-ylmethyl 8-benzyl-3-butyl-6-(4-hydroxybenzyl)-4,7-dioxohexahydropyrazino[2,1-c][1,2,4]oxadiazine-1(6H)-carboxylate] |  | 51.7
CCCC[C@H]1ON(C(=O)OCc2cccc3ccccc23)C2CN(C(C)C)C(=O)[C@H](Cc3ccc(O)cc3)N2C1=O (stereo partly drawn) [Compound I-12, (3R,6S)-naphthalen-1-ylmethyl 3-butyl-6-(4-hydroxybenzyl)-8-isopropyl-4,7-dioxohexahydropyrazino[2,1-c][1,2,4]oxadiazine-1(6H)-carboxylate] |  | 71
NC(=O)C[C@H]1C(=O)N(CCc2cccc3ccccc23)CC2N(C(=O)OCC3CCCCC3)O[C@H](Cc3ccc(O)cc3)C(=O)N21 (stereo partly drawn) [Compound I-49, (3R,6S)-cyclohexylmethyl 6-(2-amino-2-oxoethyl)-3-(4-hydroxybenzyl)-8-(2-(naphthalen-1-yl)ethyl)-4,7-dioxohexahydropyrazino[2,1-c][1,2,4]oxadiazine-1(6H)-carboxylate] | 92.6 | 
CCCCCC[C@H]1C(=O)N(C2CCN(C)CC2)C[C@@H]2N(CCCc3ccccc3)O[C@H](CC(C)C)C(=O)N21 [Compound I-142, (3R,6S,9aS)-6-hexyl-3-isobutyl-8-(1-methylpiperidin-4-yl)-1-(3-phenylpropyl) tetrahydropyrazino [2,1-c][1,2,4]oxadiazine-4,7(3H,6H)-dione] | 113 | 
CCCC[C@@H](C(=O)NCCC(C)C)N1CC2N(C(=O)OCCc3ccccc3)O[C@H](Cc3ccccc3)C(=O)N2[C@@H](Cc2ccccc2)C1=O (stereo partly drawn) [Compound I-82, phenethyl (3R,6S)-3,6-dibenzyl-8-((S)-1-(isopentylamino)-1-oxohexan-2-yl)-4,7-dioxohexahydro-pyrazino[2,1-c] [1,2,4]oxadiazine-1(6H)-carboxylate] | 51.2 | 
CC(C)[C@H]1C(=O)N(CCc2cccc3ccccc23)CC2N(C(=O)OCc3ccccc3)O[C@H](Cc3ccc(O)cc3)C(=O)N21 (stereo partly drawn) [Compound I-44, (3R,6S)-benzyl 3-(4-hydroxybenzyl)-6-isopropyl-8-(2-(naphthalen-1-yl)ethyl)-4,7-dioxohexahydropyrazino[2,1-c][1,2,4]oxadiazine-1(6H)-carboxylate] | 63.1 | 
CC[C@H](C)CN1CC2N(C(=O)OCC(C)C)O[C@H](CC3CCCCC3)C(=O)N2[C@@H](CCCCN)C1=O (stereo partly drawn) [Compound I-40, (3R,6S)-isobutyl 6-(4-aminobutyl)-3-(cyclohexylmethyl)-8-((S)-2-methylbutyl)-4,7-dioxohexahydropyrazino[2,1-c][1,2,4]oxadiazine-1(6H)-carboxylate] | 124 | 
CC(C)CCCNC(=O)[C@H](Cc1ccc(O)cc1)N1CC2N(C(=O)OCCc3ccc(O)cc3)O[C@H](Cc3ccccc3)C(=O)N2[C@@H](Cc2ccc(O)cc2)C1=O (stereo partly drawn) [Compound I-110, 4-hydroxyphenethyl (3R,6S)-3-benzyl-6-(4-hydroxybenzyl)-8-((S)-3-(4-hydroxyphenyl)-1-((4-methylpentyl)amino)-1-oxopropan-2-yl)-4,7-dioxohexahydropyrazino[2,1-c][1,2,4]oxadiazine-1(6H)-carboxylate] | 75.2 | 
CC(C)[C@H]1C(=O)N(Cc2cccc3ccccc23)CC2N(C(=O)OCc3cccc4ccccc34)O[C@H](CC(N)=O)C(=O)N21 (stereo partly drawn) [Compound I-19, (3R,6S)-naphthalen-1-ylmethyl 3-(2-amino-2-oxoethyl)-6-isopropyl-8-(naphthalen-1-ylmethyl)-4,7-dioxohexahydropyrazino[2,1-c][1,2,4]oxadiazine-1(6H)-carboxylate] |  | 67.3
CN1CCC(N2CC3N(C(=O)OCc4ccccc4)O[C@H](CC4CCCCC4)C(=O)N3[C@@H](CC3CCCCC3)C2=O)CC1 (stereo partly drawn) [Compound I-139, benzyl (3R,6S)-3,6-bis (cyclohexylmethyl)-8-(1-methylpiperidin-4-yl)-4,7-dioxohexahydropyrazino [2,1-c][1,2,4]oxadiazine-1(6H)-carboxylate] | 116 | 
